According to PubChem BioAssay (NCI):
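Briefly, cells in 96-well plates were exposed to five compound concentrations for 48 h, and endpoints were estimated by linear interpolation. GI50 marks 50% less growth. At the TGI there is no net growth.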

Legend:
Test in all cases: NCI-60 cell line screen, 48 h
[1] = test system: SK-MEL-5 melanoma
[2] = test system: U251 CNS
[3] = test system: HCT-116 colon
[4] = test system: OVCAR-5 ovarian
[5] = test system: TK-10 renal
[6] = test system: MALME-3M melanoma
[7] = test system: HT29 colon
[8] = test system: HCC-2998 colon
[9] = test system: T-47D breast
[10] = test system: CCRF-CEM leukemia

Row | SMILES | GI50 [1] [µM] | TGI [1] [µM] | GI50 [2] [µM] | TGI [2] [µM] | GI50 [3] [µM] | TGI [3] [µM] | GI50 [4] [µM] | TGI [4] [µM] | GI50 [5] [µM] | TGI [5] [µM] | GI50 [6] [µM] | TGI [6] [µM] | GI50 [7] [µM] | TGI [7] [µM] | GI50 [8] [µM] | TGI [8] [µM] | GI50 [9] [µM] | TGI [9] [µM] | GI50 [10] [µM] | TGI [10] [µM]
1 | O=Nc1ccc(NO)c2ccccc12 | 11.7 | 24.2 | 13.1 | 26.1 | 3.15 | 12.7 | 18.6 | 35.5 | 27.6 | 42.5 | 5.85 | 19 | 5.96 | 24.7 | 17.4 | 31.7 | 3.67 | 21.4 | 8.04 | 58.9
2 | C#CCSc1cc(Cl)c(C)cc1S(=O)(=O)Nc1nc2ccccc2o1 | 20.5 | 40.2 | 38.5 | > 100 | 24.5 | 55.1 | 51.6 | > 100 | 48.5 | > 100 | 28.1 | 73.5 | 42.8 | > 100 | 22.5 | 48.3 | 44.3 | > 100 | 26.2 | > 100
3 | c1ccc(CN2COc3c(ccc4c3OCN(Cc3ccccc3)C4)C2)cc1 | 0.501 | 2.04 | 0.382 | > 100 | 0.535 | > 100 | 0.857 | > 100 | 0.464 | > 100 | 3.06 | > 100 | 0.955 | > 100 | 1.21 | > 100 | 0.96 | > 100 | 0.451 | > 100
4 | C#Cc1c(/C=C/C(=O)OCC)ccc2ccccc12 | 15.2 | 31.9 | 11.2 | 31.7 | 26.2 | 91.6 | 28.9 | > 100 | 30.4 | 79.1 | 13.1 | 41.2 | 6.61 | 26 | 27.4 | > 100 | 42.8 | > 100 | 14.6 | 30.9
5 | C=CC(=O)Nc1cc(C)ccc1Nc1nc(Nc2cc(OC)ncc2C)ncc1C(F)(F)F | 1.77 | 5.42 | 0.758 | > 100 | 0.256 | 1.31 | 0.227 | 2.14 | 0.416 | > 100 | 0.0211 | 0.161 | 0.122 |  | 0.261 | 4.34 | 1.2 | > 100 | 3.73 | > 100
6 | CCN(CC)CCCNCc1cc(-c2ccccc2)nc2ccccc12 | 5.49 | 18.7 | 4.16 | 19.4 | 0.352 | 17.9 | 37.9 | > 100 | 5.09 | 31.8 | 7.2 | 24.3 | 2.77 | 10.6 | 14.9 | 31.1 | 10.2 | 59.6 | 2.22 | > 100
7 | O=c1cc(-c2cccc3c2Sc2ccccc2S3)oc(N2CCOCC2)c1 | 8.53 | 22 | 8.94 | 21.7 | 9.55 | 22.6 | 13.5 | 28.3 | 12.2 | 25 | 8.81 | 24.4 | 8.82 | 23.5 | 11.6 | 25.8 | 3.69 | 18.2 | 21.1 | > 55.8
8 | CN(C)CCNC(=O)c1cccc(N(C)C(=O)c2ccccc2)c1[N+](=O)[O-] |  | > 100 |  | > 100 |  | > 100 |  | > 100 |  | > 100 |  | > 100 |  | > 100 |  | > 100 |  | > 100 |  | > 100
9 | O=C(Nc1ccncc1)C(=O)c1cn(S(=O)(=O)c2ccc(Cl)cc2)c2ccccc12 | 0.443 | 11.9 | 1.06 | 17.8 | 0.415 | > 48.9 | > 30.1 | > 95.8 | 11.5 | 38.4 | 0.894 | > 100 | 0.397 | > 32.4 | 10.3 | > 100 | 0.905 | > 100 | 3.18 | > 100
10 | N=c1ccn(O)cc1/C=C1/C(=O)Nc2ccccc21 | > 100 | > 100 | > 100 | > 100 | > 100 | > 100 | > 100 | > 100 | > 100 | > 100 | > 100 | > 100 | > 100 | > 100 | > 100 | > 100 | > 100 | > 100 | > 100 | > 100
